Reference: patent publication US9856216B2, “Compounds as TNIK, IKKε and TBK1 inhibitors and pharmaceutical composition comprising same” (GREEN CROSS CORPORATION, priority 2015, dated 2018)

Biological target: T1, TNIK (Homo sapiens, UniProt Q9UKE5)
T1 construct: purchased Promega V4158
Test: ADP-Glo Kinase Assay, inhibition activity on TNIK
Type: biochemical
Conditions: not given
Method: The inhibition activities on TNIK, IKKε and TBK1 were measured by a luminometer, TNIK/IKKε/TBK1 Kinase Enzyme System (Promega, Ca# V4158; Invitrogen, PR8031B, Promega, Ca# V3991) and ADP-Glo Kinase Assay using ADP-Glo™ Kinase Analysis Kit (Promega, Ca# V9101) and a kinase reaction buffer [40 mM Tris(pH 7.5), 20 mM MgCl2, 0.1 mg/mL BSA] in accordance with the manufacturer's protocol.

T1 sequence (Q9UKE5 1-367 limits assumed): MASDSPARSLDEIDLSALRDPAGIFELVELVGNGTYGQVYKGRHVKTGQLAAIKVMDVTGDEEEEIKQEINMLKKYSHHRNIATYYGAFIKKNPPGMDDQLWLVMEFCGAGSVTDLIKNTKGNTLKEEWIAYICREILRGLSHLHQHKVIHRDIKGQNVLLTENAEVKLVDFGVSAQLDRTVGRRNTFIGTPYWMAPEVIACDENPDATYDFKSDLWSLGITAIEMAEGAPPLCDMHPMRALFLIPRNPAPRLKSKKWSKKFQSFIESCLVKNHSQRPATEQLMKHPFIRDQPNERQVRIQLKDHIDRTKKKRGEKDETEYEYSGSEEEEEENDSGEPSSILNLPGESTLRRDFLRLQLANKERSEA

How did the “TNIK (μM)” value turn out when `O=C(Nc1ccc(Nc2ccccn2)c2c1C(=O)NC2)c1ccc(F)cc1` [Example 428, 4-Fluoro-N-(3-oxo-7-(pyridin-2-ylamino)isoindolin-4-yl) benzamide] was run?
Its value is “Insoluble”.

Same assay, conditions: read-out: TNIK

`O=C(Nc1ccc(-c2ccc3ncccc3c2)c2c1C(=O)NC2)c1ccc(NCCN2CCCC2)cc1` [Example 385, N-(3-oxo-7-(quinolin-6-yl)isoindolin-4-yl)-4-((2-(pyrrolidin-1-yl)ethyl)amino)benzamide] was tested. Which IC50 did it give?
Its IC50 is 0.78 µM.

For `O=C(Nc1ccc(-c2cccc3ncccc23)c2c1C(=O)NC2)c1ccc(NCCN2CCCC2)cc1` [Example 386, N-(3-oxo-7-(quinolin-5-yl)isoindolin-4-yl)-4-((2-(pyrrolidin-1-yl)ethyl)amino)benzamide], which IC50 is on record?
Its IC50 is 0.099 µM.

With `O=C(Nc1ccc(-c2ccnc3ccccc23)c2c1C(=O)NC2)c1ccc(NCCN2CCCC2)cc1` [Example 387, N-(3-oxo-7-(quinolin-4-yl)isoindolin-4-yl)-4-((2-(pyrrolidin-1-yl)ethyl)amino)benzamide] as the molecule, how does the IC50 read?
Its IC50 is 0.033 µM.

With `O=C(Nc1ccc(C(=O)O)c2c1C(=O)NC2)c1ccc(F)cc1` [Example 388, 7-(4-Fluorobenzamido)-1-oxoisoindoline-4-carboxylic acid] as the molecule, how does the IC50 read?
Its IC50 is 3.89 µM.

Which IC50 does the source give for `CNC(=O)c1ccc(NC(=O)c2ccc(F)cc2)c2c1CNC2=O` [Example 389, 7-(4-Fluorobenzamido)-N-methyl-1-oxoisoindoline-4-carboxamide] here?
Its IC50 is greater than 20 µM.

For `CNC(=O)c1ccc(NC(=O)c2ccc(NCCN3CCCC3)cc2)c2c1CNC2=O` [Example 390, N-methyl-1-oxo-7-(4-((2-(pyrrolidin-1-yl)ethyl)amino)benzamido)isoindoline-4-carboxamide], which IC50 is on record?
Its IC50 is 3.87 µM.

For `O=C(Nc1ccc(C(=O)N2CCCC2)c2c1C(=O)NC2)c1ccc(F)cc1` [Example 391, 4-Fluoro-N-(3-oxo-7-(pyrrolidine-1-carbonyl)isoindolin-4-yl) benzamide], which IC50 is on record?
The IC50 was greater than 20 µM.

Which IC50 does the source give for `O=C(Nc1ccc(C(=O)N2CCCC2)c2c1C(=O)NC2)c1ccc(NCCN2CCCC2)cc1` [Example 392, N-(3-oxo-7-(pyrrolidine-1-carbonyl)isoindolin-4-yl)-4-((2-(pyrrolidin-1-yl)ethyl)amino)benzamide] here?
The IC50 was greater than 20 µM.

With `CC(C)(O)c1ccc(NC(=O)c2ccc(F)cc2)c2c1CNC2=O` [Example 393, 4-Fluoro-N-(7-(2-hydroxypropan-2-yl)-3-oxoisoindolin-4-yl) benzamide] as the molecule, how does the IC50 read?
The IC50 was 2.57 µM.

With `CC(C)(O)c1ccc(NC(=O)c2ccc(NCCN3CCCC3)cc2)c2c1CNC2=O` [Example 394, N-(7-(2-hydroxypropan-2-yl)-3-oxoisoindolin-4-yl)-4-((2-(pyrrolidin-1-yl)ethyl)amino)benzamide] as the molecule, how does the IC50 read?
Its IC50 is 5.44 µM.

With `O=C(Nc1ccc(O)c2c1C(=O)NC2)c1ccc(F)cc1` [Example 396, 4-Fluoro-N-(7-hydroxy-3-oxoisoindolin-4-yl)benzamide] as the molecule, how does the IC50 read?
The IC50 was 1.29 µM.

`CC(=O)Nc1ccc(C(=O)Nc2ccc(-c3ccccc3)c3c2C(=O)NCC3)cc1` [Example 397, 4-Acetamido-N-(1-oxo-5-phenyl-1,2,3,4-tetrahydroisoquinolin-8-yl)benzamide] was tested. Which IC50 did it give?
The IC50 was 5.4 µM.

For `O=C(Nc1ccc(-c2ccccc2)c2c1C(=O)NCC2)c1ccccc1` [Example 398, N-(1-oxo-5-phenyl-1,2,3,4-tetrahydroisoquinolin-8-yl) benzamide], which IC50 is on record?
Its IC50 is 3.3 µM.

`O=C(Nc1ccc(-c2ccccc2)c2c1C(=O)NCC2)c1ccco1` [Example 399, N-(1-oxo-5-phenyl-1,2,3,4-tetrahydroisoquinolin-8-yl)furan-2-carboxamide] was tested. Which IC50 did it give?
The IC50 was 1.8 µM.

How did the IC50 turn out when `COc1cccc(-c2ccc(NC(=O)c3ccc(F)cc3)c3c2CCNC3=O)c1OC` [Example 400, N-(5-(2,3-dimethoxyphenyl)-1-oxo-1,2,3,4-tetrahydroisoquinolin-8-yl)-4-fluorobenzamide] was run?
Its IC50 is 8.18 µM.

For `O=C(Nc1ccc(-c2ccccc2)c2c1C(=O)NCC2)c1ccc(NCCN2CCCC2)cc1` [Example 401, N-(1-oxo-5-phenyl-1,2,3,4-tetrahydroisoquinolin-8-yl)-4-((2-(pyrrolidin-1-yl)ethyl)amino)benzamide], which IC50 is on record?
The IC50 was 2.15 µM.

How did the IC50 turn out when `COc1ccccc1-c1ccc(NC(=O)c2ccc(NCCN3CCCC3)cc2)c2c1CCNC2=O` [Example 402, N-(5-(2-methoxyphenyl)-1-oxo-1,2,3,4-tetrahydroisoquinolin-8-yl)-4-((2-(pyrrolidin-1-yl)ethyl)amino)benzamide] was run?
The IC50 was 2.38 µM.

With `O=C(Nc1ccc(Br)c2c1C(=O)NCC2)c1ccc(NCCN2CCCC2)cc1` [Example 403, N-(5-bromo-1-oxo-1,2,3,4-tetrahydroisoquinolin-8-yl)-4-((2-(pyrrolidin-1-yl)ethyl)amino)benzamide] as the molecule, how does the IC50 read?
The IC50 was 9.82 µM.

For `O=C(Nc1ccc(Sc2ccccc2)c2c1C(=O)NC2)c1ccc(F)cc1` [Example 404, 4-Fluoro-N-(3-oxo-7-(phenylthio)isoindolin-4-yl)benzamide], which IC50 is on record?
Its IC50 is greater than 20 µM.

Which IC50 does the source give for `O=C(Nc1ccc(S(=O)(=O)c2ccccc2)c2c1C(=O)NC2)c1ccccc1` [Example 406, N-(3-oxo-7-(phenylsulfonyl)isoindolin-4-yl)benzamide] here?
The IC50 was greater than 20 µM.

With `O=C(Nc1ccc(Sc2ccccc2)c2c1C(=O)NC2)c1ccccc1` [Example 407, N-(3-oxo-7-(phenylthio)isoindolin-4-yl)benzamide] as the molecule, how does the IC50 read?
Its IC50 is 2.3 µM.

For `O=C(Nc1ccc(Nc2ccccc2)c2c1C(=O)NC2)c1ccc(F)cc1` [Example 408, 4-Fluoro-N-(3-oxo-7-(phenylamino)isoindolin-4-yl)benzamide], which IC50 is on record?
The IC50 was 0.28 µM.

`O=C(Nc1ccc(Nc2ccccc2)c2c1C(=O)NC2)c1ccccc1` [Example 409, N-(3-oxo-7-(phenylamino)isoindolin-4-yl)benzamide] was tested. Which IC50 did it give?
The IC50 was 0.32 µM.

Which IC50 does the source give for `COc1ccccc1Nc1ccc(NC(=O)c2ccccc2)c2c1CNC2=O` [Example 410, N-(7-((2-methoxyphenyl)amino)-3-oxoisoindolin-4-yl) benzamide] here?
The IC50 was 0.45 µM.

How did the IC50 turn out when `Cc1ccccc1Nc1ccc(NC(=O)c2ccccc2)c2c1CNC2=O` [Example 411, N-(3-oxo-7-(o-tolylamino)isoindolin-4-yl)benzamide] was run?
The IC50 was greater than 20 µM.

How did the IC50 turn out when `Cc1ccc(Nc2ccc(NC(=O)c3ccccc3)c3c2CNC3=O)cc1` [Example 412, N-(3-oxo-7-(p-tolylamino)isoindolin-4-yl)benzamide] was run?
The IC50 was 4.1 µM.

Which IC50 does the source give for `O=C(Nc1ccc(Nc2ccccc2F)c2c1C(=O)NC2)c1ccccc1` [Example 413, N-(7-((2-fluorophenyl)amino)-3-oxoisoindolin-4-yl)benzamide] here?
The IC50 was 0.5 µM.

How did the IC50 turn out when `O=C(Nc1ccc(Nc2ccc(F)cc2)c2c1C(=O)NC2)c1ccccc1` [Example 414, N-(7-((4-fluorophenyl)amino)-3-oxoisoindolin-4-yl)benzamide] was run?
The IC50 was 0.55 µM.

For `O=C(Nc1ccc(Nc2cccc(F)c2)c2c1C(=O)NC2)c1ccccc1` [Example 415, N-(7-((3-fluorophenyl)amino)-3-oxoisoindolin-4-yl)benzamide], which IC50 is on record?
The IC50 was 1.7 µM.

For `COc1ccc(Nc2ccc(NC(=O)c3ccccc3)c3c2CNC3=O)cc1` [Example 416, N-(7-((4-methoxyphenyl)amino)-3-oxoisoindolin-4-yl) benzamide], which IC50 is on record?
The IC50 was 3.7 µM.

For `Cc1ccc(C(=O)Nc2ccc(Nc3ccccc3)c3c2C(=O)NC3)cc1` [Example 417, 4-Methyl-N-(3-oxo-7-(phenylamino)isoindolin-4-yl)benzamide], which IC50 is on record?
Its IC50 is 0.5 µM.

For `O=C(Nc1ccc(Nc2cccc(Cl)c2)c2c1C(=O)NC2)c1ccc(F)cc1` [Example 418, N-(7-((3-chlorophenyl)amino)-3-oxoisoindolin-4-yl)-4-fluorobenzamide], which IC50 is on record?
The IC50 was 1.17 µM.

Which IC50 does the source give for `O=C(Nc1ccc(Nc2ccccc2Cl)c2c1C(=O)NC2)c1ccc(F)cc1` [Example 419, N-(7-((2-chlorophenyl)amino)-3-oxoisoindolin-4-yl)-4-fluorobenzamide] here?
The IC50 was 2.11 µM.

Which IC50 does the source give for `O=C(Nc1ccc(Nc2ccccc2)c2c1C(=O)NC2)c1ccccc1F` [Example 420, 2-Fluoro-N-(3-oxo-7-(phenylamino)isoindolin-4-yl)benzamide] here?
The IC50 was 0.79 µM.

With `O=C(Nc1ccc(Nc2ccccc2)c2c1C(=O)NC2)c1cccc(F)c1` [Example 421, 3-Fluoro-N-(3-oxo-7-(phenylamino)isoindolin-4-yl)benzamide] as the molecule, how does the IC50 read?
The IC50 was 0.82 µM.

With `COc1cccc(Nc2ccc(NC(=O)c3ccc(F)cc3)c3c2CNC3=O)c1OC` [Example 422, N-(7-((2,3-dimethoxyphenyl)amino)-3-oxoisoindolin-4-yl)-4-fluorobenzamide] as the molecule, how does the IC50 read?
The IC50 was 1.18 µM.

`O=C(Nc1ccc(Nc2cc(C(F)(F)F)cc(C(F)(F)F)c2)c2c1C(=O)NC2)c1ccc(F)cc1` [Example 423, N-(7-((3,5-bis(trifluoromethyl)phenyl)amino)-3-oxoisoindolin-4-yl)-4-fluorobenzamide] was tested. Which IC50 did it give?
Its IC50 is greater than 20 µM.

`Cc1cccc(Nc2ccc(NC(=O)c3ccc(F)cc3)c3c2CNC3=O)c1C` [Example 424, N-(7-((2,3-dimethylphenyl)amino)-3-oxoisoindolin-4-yl)-4-fluorobenzamide] was tested. Which IC50 did it give?
Its IC50 is 1.35 µM.

How did the IC50 turn out when `COc1ccccc1Nc1ccc(NC(=O)c2ccc(F)cc2)c2c1CNC2=O` [Example 425, 4-Fluoro-N-(7-((2-methoxyphenyl)amino)-3-oxoisoindolin-4-yl)benzamide] was run?
The IC50 was 0.84 µM.

How did the IC50 turn out when `Cc1ccccc1Nc1ccc(NC(=O)c2ccc(F)cc2)c2c1CNC2=O` [Example 426, 4-Fluoro-N-(3-oxo-7-(o-tolylamino)isoindolin-4-yl)benzamide] was run?
Its IC50 is 1.26 µM.

`O=C(Nc1ccc(Nc2cccnc2)c2c1C(=O)NC2)c1ccc(F)cc1` [Example 427, 4-Fluoro-N-(3-oxo-7-(pyridin-3-ylamino)isoindolin-4-yl) benzamide] was tested. Which IC50 did it give?
Its IC50 is 0.62 µM.

Which IC50 does the source give for `O=C(Nc1ccc(Nc2cnccn2)c2c1C(=O)NC2)c1ccc(F)cc1` [Example 429, 4-Fluoro-N-(3-oxo-7-(pyrazin-2-ylamino)isoindolin-4-yl) benzamide] here?
Its IC50 is 0.53 µM.

With `Cn1cc(Nc2ccc(NC(=O)c3ccc(F)cc3)c3c2CNC3=O)cn1` [Example 430] as the molecule, how does the IC50 read?
The IC50 was 6.47 µM.

How did the IC50 turn out when `COc1cccc(Nc2ccc(NC(=O)c3ccccc3)c3c2CNC3=O)c1` [Example 431, N-(7-((3-methoxyphenyl)amino)-3-oxoisoindolin-4-yl) benzamide] was run?
The IC50 was 0.94 µM.
